Measurements: patent US20070202185A1, “Microencapsulated Delivery Vehicles Having Fugitive Layers” (KIMBERLY-CLARK WORLDWIDE, INC., priority 2005, published 2007)
Where two headings read alike, the source gives them in different places.

Tested on: Methicillin-resistant Staphylococcus aureus
Conditions: 0.005% PHMB versus no PHMB
Procedure: This Example utilized 1.5-milliliter tubes containing a 1-milliliter blend of phosphate-buffered saline (pH 7.2) and 5% (w/v) bovine serum albumin soil. The tubes were placed in electric heat blocks set for 22° C., 30° C., 40° C. and 50° C., respectively. The tubes remained in the electric heat blocks for approximately 10 minutes.
After 10 minutes, 0.005% (by weight) active polyhexamehtylene biguanide (PHMB) (commercially available as Cosmocil® CQ from Arch Biocides, Inc., United Kingdom) was added to two tubes at each temperature level. Duplicate tubes without PHMB at each temperature were also made.
The tubes were then vortexed and Methicillin-resistant Staphylococcus aureus (approximately 1×10^5 colony forming units (CFU)) was then added to each tube. All of the tubes were then placed back into the heat blocks at their respective temperatures.
Following a 10-minute contact time, 0.1 milliliters of each sample was transferred to 0.9 milliliters letheen broth to neutralize the PHMB activity. The letheen samples were then plated in duplicate on Tryptic Soy agar plates using a WASP2 spiral plater (commercially available from Don Whitley Scientific, Ltd., Yorkshire, United Kingdom). The plates were inverted and incubated at 37±2° C. for 48 hours.
After 48 hours, the plates were evaluated using a total plate count to determine the biocidal efficacy of each sample.

Substance: polyhexamethylene biguanide [PHMB]
- LOG10 Reduction (22° C.): 2.1
- LOG10 Reduction (30° C.): 2.8
- LOG10 Reduction (40° C.): 3.5
- LOG10 Reduction (50° C.): >3.5
